# Measurements as given in ChEMBL document CHEMBL5523733, “Small Molecule Targeting PPM1A Activates Autophagy for Mycobacterium tuberculosis Host-Directed Therapy” (J Med Chem, 2024).
# System: Mycobacterium tuberculosis
# Test: Anti-mycobacterial activity against Mycobacterium tuberculosis mc2 6206 expressing autoluminescent luciferase infected in human THP-1 cells assessed as reduction in bacterial burden pretreated for 24 hrs followed by bacterial infection measured for 5 days post-infection with re-current replacement of media with compound for every 2 days by luminescence based assay
# Type: functional, organism-based
# Conditions: dose 0.5-5 µM, time 6.0 day
smiles,measurement,value
CCOc1ccc2c(c1)c[n+](CCO)c1ccc(F)cc21.[Br-],Activity,Dose-Dependent Effect
